How the values were obtained:
[1] = system: HER2-positive OVCAR-3 ovarian cancer cells; assay: Additional CAR-T killing assay (Example 11); assay type: cell-based, human; conditions: HER2 scFv-CD28-CD3z-CAR-T cells from Donor 1 or Donor 2, compound-treated 1h at 1, 3 or 10 μM; co-culture 2 h; vs DMSO; FIG. 5
From the text: HER2 scFv-CD28-CD3z-CAR-T (Creative Bio) lentiviral particles were generated via transfection of 293T cells using Lipofectamine 2000 transfection reagent (ThermoFisher) according to manufacturer's instructions Human CD3+ T cells were negatively selected from peripheral blood mononuclear cells (PBMCs) (Discovery Life Sciences) from two individual healthy donors (Donor 1, Donor 2) using EasySep Human T cell Isolation Kit (StemCell Technologies #17951) and subsequently activated at a concentration of 0.5×10^6 cells/mL with Human T Expander Dynabeads (Gibco) (Thermo Fisher Scientific #11141D) at a ratio of 1 bead per cell in CTS Optimizer T cell expansion serum free medium (SFM) (Thermo Fisher Scientific #A1048501) supplemented with recombinant human IL-7 (10 ng/mL) and recombinant human IL-15 (5 ng/mL) (Peprotech #200-02). […]
For the killing assay, HER2-positive OVCAR-3 (ATCC #HTB-161) ovarian cancer cells stably transduced with IncuCyte Nuclight Red Lentivirus (Essen Biosciences #4706) in OVCAR media (RPMI 1640+20% FBS, 1% Pen-Strep +0.01 mg/mL human insulin) were plated (1.5×10^4 cells/well) in 96-well flat-bottom plates and incubated at 37° C. to allow for overnight adherence to serve as target cells. […] Tumor cell death was quantified on a ZE5 flow cytometer (Bio-Rad).

[2] = system: HER-2 positive tumor line (OVCAR-3); assay: CAR-T killing assay (Example 7); assay type: cell-based, human
From the text: HER-2 specific CAR-T cells (CAR-Ts) were generated by transducing primary human CD3+ T cells (Discovery Life Sciences) with a lentivirus expressing a chimeric antigen receptor specific to human HER2, as well as GFP (Creative Bio). Prior to transduction, T cells were stimulated overnight with anti-CD3 and anti-CD28 antibodies coated onto magnetic beads (Invitrogen) at a 1:1 bead-to-cell ratio. Four days after transduction, the beads were removed and the following day CAR-Ts were sorted based on GFP expression and expanded in hIL7 ([…]) (Peprotech) and hIL15 (5 ng/mL) (Peprotech) for an additional 8 days. […]
CAR-Ts were pretreated with 0.1% DMSO (vehicle control) or a PTPN22 inhibitor (Compound A) for 1-2.5 hours prior to co-culture with cell lines at indicated concentrations. […] Tumor killing was assessed by comparing DMSO-treated CAR-Ts to PTPN22 inhibitor-treated CAR-Ts using either flow cytometry or Incucyte imaged-based assessment of tumor cell viability, at various effector:target ratios. Percent killing was assessed by calculating the amount of viable cells at a given time point as compared to untreated tumor cells (spontaneous release, marked “No CAR-T” in FIG. 2), tumor cells treated with PTPN22 inhibitor, and tumor cells cultured with DMSO treated CAR-T cells as a control.

In the case of `O=C(O)c1cc2c(C#Cc3cccc(C(F)(F)F)c3)c(-c3ccccc3)oc2cc1O` [Compound A], the “tumor cell killing activity of CAR-T cells” value [1] is reported as “higher tumor cell killing activity”, the “tumor cell killing activity of CAR-T cells” value ([2]; HER-2 specific CAR-Ts pretreated 1-2.5 hours then washed, compared to control cells treated with DMSO, FIG. 2) is reported as “higher tumor cell killing activity” and the “increase in cell killing” value ([2]; HER-2 specific CAR-Ts transiently pretreated 1-2.5 hours then washed, compared to DMSO control, FIG. 3) is reported as ≥ 1.5 fold.

Source: US20230092294A1, “COMPOSITIONS AND METHODS FOR POTENTIATING IMMUNE RESPONSE” (Kumquat Biosciences Inc., priority 2019, published 2023)
